How the values were obtained:
[1] = test system: rabbit eye; assay: Mydriatic experiments, pupil diameter in the rabbit eye; assay type: in vivo, New Zealand Rabbit
Protocol: The right eye of a normal adult New Zealand Rabbit (3-4 months) was used to measure mydriasis. A flood of diffuse light was placed at a fixed distance from the rabbit eye so that the initial pupil diameter prior to administering eye drops was about 3 mm. Changes in pupil diameter were measured from photographs taken with a 35 mm single lens reflex camera equipped with a close-up lens. Pupil diameters were measured at time 0 through about 5 hours. A dosing volume of 10 μl was administered to the right eye of a group of eight rabbits. A period of at least three days was allowed between instillations of each formulation.

[2] = Hydrolysis in buffered aqueous solution at 35° C.; assay type: physicochemical; conditions: pH's between 1-7.5
Protocol: A series of experiments were conducted at 35° C. to determine the apparent first order hydrolysis rate constant for phenylephrine oxazolidine at […]. The progress of hydrolysis of the prodrug was followed by measuring the production of pivaldehyde subsequently trapped with thiosemicarbazide (pH<4) or semicarbazide (pH 4-7.5). The resulting formation of the carbazone derivative was followed using Uv spectroscopy at 235 and 265 nm (the spectroscopy was a 8450A UV/VIS Hewlett-Packard, Chicago, Ill.). The prodrug was dissolved in either pH 1, 2, 3, 4, 5, 6, 7 or 7.5 buffered aqueous solutions. The buffers used were hydrochloric acid, formate, acetate and phosphate solutions. The carbonyl trapping reagent was included in the buffer solutions at a concentration of 3.1×10(-3) M. The initial concentration of oxazolidine prodrug was about 1.8×10(-4) M. A volume of 3 ml was used for the reaction which was monitored directly in the absorbance cell. […] The concentration of carbazone was calculated by referring to a standard curve.

[3] = Stability in aqueous solutions; assay type: physicochemical
[4] = Distribution coefficient (log DC); assay type: physicochemical; conditions: read-out: log DC (Dist. Coeff.)
[5] = topical ocular; some individuals; cited from earlier work

| Compound | potency relative to the aqueous solution of phenylephrine HCl ([1]; based upon pupillary diameter, versus 10% viscous preparation of phenylephrine HCl, FIG. 2) | mydriasis compared with phenylephrine HCl ([1]; molar equivalent concentration to 10% oil suspension of phenylephrine HCl, 10 μl to right eye, FIG. 1) | half-life [2] | stability in aqueous solutions [3] | logD [4] | side effects [5] |
| --- | --- | --- | --- | --- | --- | --- |
| CN1C[C@@H](c2cccc(O)c2)OC1C(C)(C)C (single isomer, unassigned) [phenylephrine oxazolidine, 2-t-butyl-3-methyl-5-(m-hydroxyphenyl)-1,3-oxazolidine] | approximately 10 times | significantly greater mydriasis | 5 to 12 min | not particularly stable in aqueous solutions | 1.383 ± 0.013 |  |
| CNC[C@H](O)c1cccc(O)c1 [phenylephrine, 3-hydroxy-α-[(methylamino)methyl]-benzyl alcohol] |  |  |  |  |  | hypertension, syncope, and even in some cases to myocardial infarction, leading to death |
